Patent publication US20060052432A1, “Pharmaceutical compositions with improved dissolution” (priority 2002, published 2006)
Where a name gives a salt, the structure may show the parent alone. Blank lines part the entries; values can stand above or below the molecule they belong to.

Assays:
[1] = commercially available neutral form; cited from earlier work
[2] = pKa; assay type: physicochemical
[3] = Administration of celecoxib compositions to dogs (plasma pharmacokinetics); details: single oral dose, 5 mpk, male dogs
[4] = Pharmacokinetic studies in rats, 5 mg/kg oral doses; assay type: in vivo, male Sprague-Dawley rats; details: gelatin capsule, sodium salt blended 1:4 with polyvinylpyrrolidone, compared with CELEBREX
Experimental: The sodium salt form (from Example 6) was compared with CELEBREX powder in terms of absorption in rats (FIGS. 4A and 4B).
Solids were placed in size 9 gelatin capsules (Torpac) and dosed via gavage needle, followed by oral gavage of 1 mL water. CELEBREX granulation was transferred from commercial 200 mg capsules. The sodium salt was blended with polyvinylpyrrolidone (e.g. PovidoneK30) in a 1:4 mixture. The plots are averages of plasma levels at each of the time points from plasma of 5 rats.

[5] = In vitro dissolution studies in simulated gastric fluid; assay type: physicochemical
Experimental: 1. […] The celecoxib salt was ground using mortar and pestle until fine powder was formed. […] 2. Formulation Preparation • a. Fresh PLURONIC excipient was dispensed into a mortar. If initially a solid at room temperature, the PLURONIC was ground until a smooth powder was formed. • b. If HPC was to be added, it was dispensed after the PLURONIC excipient. […] 3. Dissolution Assay • a. A water bath was set up at 37 degrees C. • b. Simulated gastric fluid in the fasted state (SGF) was prepared at pH 1.7 and diluted five times with deionized water. […] The simulated gastric fluid was diluted five times to simulate the effect of drinking a glass of water with the medication. The SGF was pre-heated to 37 degrees C. • c. The formulation was placed in a 20 mL scintillation vial. • d. A 10 mm x 3 mm stir bar was added. • e. Diluted SGF was added to the formulation. […] The vial was placed in the water bath and allowed to stir. • g. […] The first ⅔ of filtrate was discarded as waste and the last ⅓ was collected into an eppendorf tube. 0.1 mL of the collected filtrate was immediately transferred to an autosampler vial and diluted ten times with 0.9 mL of methanol. The autosampler vials were crimp sealed and submitted for content analysis using high performance liquid chromatography with ultraviolet detection. In Vitro Dissolution Studies of PLURONIC Excipients - Results: […]

[6] = Solubility in water; assay type: physicochemical
[7] = according to WO 01/78724; cited from earlier work
[8] = Solubility of celecoxib sodium salt in the presence of polyvinylpyrrolidone; assay type: physicochemical; details: added to aqueous PVP, or water added to dry blend with PVP

pKa [2]: ~11
SMILES: Cc1onc(-c2ccccc2)c1-c1ccc(S(N)(=O)=O)cc1 [Valdecoxib, 4-(5-methyl-3-phenyl-4-isoxazolyl)benzene sulfonamide]
solubility in water (in words) [1]: essentially insoluble in water

maximum blood serum concentration reached faster than for celecoxib [3]: 40%
peak level of the drug in plasma [4]: faster peak level of the drug in plasma
SMILES: Cc1ccc(-c2cc(C(F)(F)F)nn2-c2ccc(S(N)(=O)=O)cc2)cc1 [celecoxib sodium salt, sodium salt of 4-[5-(4-methylphenyl)-3-(trifluoromethyl)-1H-pyrazol-1-yl]benzenesulfonamide]

SMILES: CCOCCOCCO [Transcutol P]
effect on dissolution of celecoxib free acid [5]: does not enhance dissolution of the free acid

solubility [6]: < 1 µg/mL
dissolution in aqueous polyvinylpyrrolidone [8]: did not dissolve
SMILES: Cc1ccc(-c2cc(C(F)(F)F)nn2-c2ccc(S(N)(=O)=O)cc2)cc1 [celecoxib, 4-[5-(4-methylphenyl)-3-(trifluoromethyl)-1H-pyrazol-1-yl]benzenesulfonamide]
solubility in water (in words) [1]: essentially insoluble in water
ability to be maintained as a supersaturated solution [6]: cannot be maintained as a supersaturated solution for any appreciable time
solubility in Transcutol P [7]: 350 mg/g
